According to patent publication US12161763B2, “Formulation and method for increasing oral bioavailability of drugs” (Yissum Research Development Company of the Hebrew …, priority 2012, dated 2024):
“And” between values parts separate entries of the source, which are not always exact repeats. Identical values can stand only once. Counter-ions that a name gives are not always drawn.

How the values were obtained:
Male Wistar rats = test: AM pharmacodynamic study: heart rate and IBI by radiotelemetry; type: in vivo; details: 12.5 mg/kg AM PO
Procedure: The deferential effect of AM on heart rate was used as a pharmacodynamic marker for assessment of AM pharmacological effect following oral administration.
Male Wistar rats (Harlan, Israel) weighing 300-350 g were kept under a 12 h light/dark cycle with free access to water and food (standard rat chow) Animals were anesthetized for the period of surgery by intraperitoneal injection of 1 mL/kg of ketamine-xylazine solution (90/10%, respectively).
An ECG transmitter (TA11CA-F40, Data Sciences International Inc., St. Paul, MN) was implanted subcutaneously over the scapula with the leads in a Lead 2 configuration by tunneling subcutaneously from the dorsal incision using a trocar. The negative lead was placed in the area of the right shoulder and the positive lead was placed immediately to the left of the xyphoid space and caudal to the rib cage.
The signal from the transmitters was received by two RLA 2000 receivers and transmitted via a Data Exchange Matrix to a Dataquest PCI card. The data were recorded continuously during the whole experiment at 1000 Hz rate with no filter cutoff and full scale at 10 mV.
The collected data were interpreted by Dataquest A.R.T program. The IBI (R-R duration, sec) and HR (bpm) were calculated in average values of each 10 min of the recording.
At the beginning the baseline were recorded at least for 120 min. After establishing stable recording the rats were treated by oral gavage. During the treatment the data was collected and afterwards extracted in further analysis.
Two groups of three rats received the treatment in a cross over manner, meaning each rat received each treatment once. The treatments were as follows:
Blank nano-lipospheres not containing AM was freshly prepared as described above and was administered by oral gavage. […] .
In order to inspect separately the effect of each delivery method, we first calculated the mean baseline IBI duration throughout 60 min prior the administration. The drug was administered at t=60 min Post administration the data was calculated throughout 180 min. The net change was calculated as the percentage of the change for each drug administration mode relative to the baseline recording. The changes from base-line in two parameters: IBI and HR were analyzed in two points: 90 min. post administration (mid phase) and 180 min post administration (end phase) (Tables 9A-B and 10A-B, respectively).

CYP3A4 = details: 120 min incubation in isolated rat microsomes
[1] = CBD nano lipospheres relative oral bioavailability study; type: in vivo; details: male, Wistar, rat, plasma; PO 15 mg/kg CBD, rats
Procedure: The obtained CBD concentration was 3 mg/mL. […] The control group received (15 mg/kg) CBD solution in propylene glycol/EthOH/water 30/30/40 respectively (1 mg/mL) (n=6).

[2] = CBD relative oral bioavailability: CBD, CBD-PNL and CBD-PNL with absorption enhancers; details: male, Wistar, rat, in vivo; PO CBD 15 mg/kg; Piperine 10 mg/kg, rats; mean ± S.E.M.
Procedure: The obtained CBD and piperine concentrations were 3 mg/mL and 2 mg/ml, respectively. […] The control groups received (15 mg/kg) CBD solution in propylene glycol/EthOH/water 30/30/40 respectively (1 mg/mL) (n=6) or CBD-PNL ((15 mg/kg of CBD).

[3] = Compatibility of BCS class II and IV drugs with the piperine-PNL pre-concentrate; type: physicochemical
Text: In order to determine the compatibility of the developed PNL delivery system with various lipophilic drugs, we have tested the ability of the piperine-PNL to dissolve various BCS class II and IV drugs.

[4] = Absorption enhancer pro-nano-liposphere development: dissolution in pre-concentrate and precipitation on dilution with water; type: physicochemical; details: for precipitation of the absorption enhancer upon dilution with water phase: curcumin 1% and 2%, resveratrol, piperine 2%
Procedure: The development of each of the formulations, in terms of a selection of the different components, was conducted by the following method. A combination of certain components was used as a reference starting point (as per Table 16). The choice of these certain triglyceride, organic amphiphilic co-solvent and the combination of surfactants in the detailed portions in Table 16 was based on the inventors' previous experience with various lipophilic drugs. Thus, an absorption enhancer was added to this specified prototype formulation to form a pre-concentrate.

[5] = Tacrolimus oral bioavailability study; type: in vivo, Male Wistar rats
[6] = Talinolol relative oral bioavailability study; type: in vivo; details: male, Wistar, rat, plasma; PO 4 mg/kg talinolol, rats
Procedure: The obtained talinolol concentration was 1 mg/mL. […] The control group received 4 mg/kg talinolol dissolved in PEG400:water:ethanol 25:60:15 to obtain 1 mg/mL concentration (n=6).

[7] = 90 min post administration, HCl
[8] = 180 min post administration, HCl

SMILES: CCCCc1oc2ccccc2c1C(=O)c1cc(I)c(OCCN(CC)CC)c(I)c1 [AM, Amiodarone HCl]
- HEART RATE (BPM) MID PHASE (Male Wistar rats; 90 min post administration): 452.916 ± 20.01 BPM
- IBI (sec) MID PHASE (Male Wistar rats; 90 min post administration): 0.1435 ± 0.008 s
- HEART RATE CHANGE % (percentage from baseline), mid phase (Male Wistar rats; [7]): 131.28% and 131.28 (*) %
- IBI CHANGE % (percentage from baseline), mid phase (Male Wistar rats; [7]): 88.86% and 88.86 (*) %
- IBI (sec) END PHASE (Male Wistar rats; 180 min post administration): 0.143 ± 0.007 s
- HEART RATE (BPM) END PHASE (Male Wistar rats; [8]): 443.071 ± 11.06 BPM and 443.07 ± 11.06 BPM
- HEART RATE CHANGE % (percentage from baseline), end phase (Male Wistar rats; [8]): 128.43% and 128.43 (*) %
- IBI CHANGE % (percentage from baseline), end phase (Male Wistar rats; [8]): 89.79% and 89.79 (*) %
- heart rate following administration (Male Wistar rats; phase not given): 452.916±20.01 BPM
- mean IBI following administration (Male Wistar rats; phase not given): 0.143 ± 0.0074 s

SMILES: C[C@]12CC[C@H]3[C@@H](CCC4=CC(=O)CC[C@@]43C)[C@@H]1CC[C@@H]2O [testosterone]
- testosterone remaining (CYP3A4): 75.39±8.82%

SMILES: C=C(C)[C@@H]1CCC(C)=C[C@H]1c1c(O)cc(CCCCC)cc1O [CBD, Cannabidiol]
- AUC [1]: 259 ng·h/mL
- Cmax [1]: 105 ± 103 ng/mL
- AUC [2]: 90 ± 21 ng·h/mL
- Cmax [2]: 39 ± 8 ng/mL

SMILES: C[C@@H]1[C@H](O)[C@@H](C)/C=C/C=C/C=C/C=C/C=C/C=C/C=C/[C@H](O[C@@H]2O[C@H](C)[C@@H](O)[C@H](N)[C@@H]2O)C[C@@H]2O[C@](O)(C[C@@H](O)C[C@@H](O)[C@H](O)CC[C@@H](O)C[C@@H](O)CC(=O)O[C@H]1C)C[C@H](O)[C@H]2C(=O)O [Amphotericin B]
- compatibility with the pre-concentrate [3]: incompatible

SMILES: Oc1ccc(C=Cc2cc(O)cc(O)c2)cc1 [resveratrol]
- dissolution of the absorption enhancer in the pre-concentrate / appearance of pre-concentrate [4]: homogeneous and visually clear pre-concentrate
- precipitation of the absorption enhancer upon dilution with water phase [4]: No precipitation

SMILES: C=CC[C@@H]1/C=C(\C)C[C@H](C)C[C@H](OC)[C@H]2O[C@@](O)(C(=O)C(=O)N3CCCC[C@H]3C(=O)O[C@H](/C(C)=C/[C@@H]3CC[C@@H](O)[C@H](OC)C3)[C@H](C)[C@@H](O)CC1=O)[C@H](C)C[C@@H]2OC [tacrolimus]
- Coefficient of variation (% CV) of plasma tacrolimus concentrations ([5]; 0.25 h after PO 1 mg/kg): 95.1%
- Coefficient of variation (% CV) of plasma tacrolimus concentrations ([5]; 0.5 h after PO 1 mg/kg): 90.8%
- Coefficient of variation (% CV) of plasma tacrolimus concentrations ([5]; 0.75 h after PO 1 mg/kg): 73.2%
- Coefficient of variation (% CV) of plasma tacrolimus concentrations ([5]; 1 h after PO 1 mg/kg): 83.5%
- Coefficient of variation (% CV) of plasma tacrolimus concentrations ([5]; 2 h after PO 1 mg/kg): 103.5%

SMILES: CC(C)(C)NCC(O)COc1ccc(NC(=O)NC2CCCCC2)cc1 (stereo not drawn) [Talinolol, talinolol]
- AUC [6]: 11.9 ng·h/mL
- Cmax [6]: 5.55 ± 1.65 ng/mL
- half-life [6]: 1.15 ± 0.19 h

SMILES: COc1cc(/C=C/C(=O)CC(=O)/C=C/c2ccc(O)c(OC)c2)ccc1O [curcumin]
- precipitation of the absorption enhancer upon dilution with water phase [4]: precipitation
